Each structure is given as a SMILES string. pIC50: −log10 of the molar value. Where a name gives a salt, the structure may show the parent alone.

T1 sequence (P27487 39-766 limits assumed): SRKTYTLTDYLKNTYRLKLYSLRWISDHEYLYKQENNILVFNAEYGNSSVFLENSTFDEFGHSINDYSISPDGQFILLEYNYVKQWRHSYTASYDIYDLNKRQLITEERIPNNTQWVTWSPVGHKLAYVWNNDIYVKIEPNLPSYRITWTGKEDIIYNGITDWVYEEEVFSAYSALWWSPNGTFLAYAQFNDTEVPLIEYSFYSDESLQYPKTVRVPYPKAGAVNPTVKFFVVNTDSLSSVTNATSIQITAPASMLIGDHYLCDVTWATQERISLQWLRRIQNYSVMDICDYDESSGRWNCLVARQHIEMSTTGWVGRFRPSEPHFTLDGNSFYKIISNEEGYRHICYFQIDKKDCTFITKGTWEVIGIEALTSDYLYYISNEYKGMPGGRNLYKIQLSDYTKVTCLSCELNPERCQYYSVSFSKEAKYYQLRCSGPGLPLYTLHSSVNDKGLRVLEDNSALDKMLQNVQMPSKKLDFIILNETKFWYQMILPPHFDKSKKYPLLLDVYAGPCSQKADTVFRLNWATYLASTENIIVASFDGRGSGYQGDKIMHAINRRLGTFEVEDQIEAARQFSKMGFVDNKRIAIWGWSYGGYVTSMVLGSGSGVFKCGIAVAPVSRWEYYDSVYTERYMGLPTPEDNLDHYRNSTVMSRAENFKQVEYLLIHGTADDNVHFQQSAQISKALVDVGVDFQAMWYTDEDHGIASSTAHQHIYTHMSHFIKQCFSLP

The first series concerns the target T1, human plasma DPP-IV (Homo sapiens, UniProt P27487).
T1 construct: from tissue; host or cells: human plasma
Kind of series: Inhibition Test of Human Plasma DPP-IV. The class given is biochemical. Conditions: substrate H-glycine-proline-AMC, 20 minutes incubation at room temperature, fluorescence. The method, then: Inhibition Test of Human Plasma DPP-IV
Briefly, 20 μL of human plasma were mixed with 20 μL of 80 mM MgCl2 in assay buffer (25 mM HEPES, 140 mM NaCl, 1% RIA-grade BSA, pH7.8), and were incubated in a room temperature for 60 minutes. Then the reaction was initiated by the addition of both 20 μL of test compounds and 20 μL of 0.2 mM substrate (H-glycine-proline-AMC; AMC is 7-amino-4-methylcoumarine), they were dissolved in the assay buffer.
After 20 minutes incubation in a room temperature (kept in the dark), fluorescence was measured (Excitation 380 nm, Emission 460 nm). A fluorescence-concentration curve of free AMC was obtained using AMC solution in the assay buffer with appropriate concentration. Plasma DPP-IV activities, with or without the test compounds, were expressed as the amount of product per minute per mL. The potency of the test compounds as DPP-IV inhibitor was expressed as IC50.
By pIC50 is commonly meant the IC50 on a negative log10 scale, so that one unit is a factor of ten. A lower pIC50 goes with a high IC50. Consider `CC1(NCC(=O)N2C[C@@H](F)C[C@H]2C#N)CCOCC1` [Example 7-12, (2S,4S)-4-Fluoro-1-{[(4-methyltetrahydro-2H-pyran-4-yl)amino]acetyl}-2-pyrrolidinecarbonitrile], for which the pIC50 is 7.82.

For the compound `N#C[C@@H]1CCCN1C(=O)[C@H]1N[C@H]2CC[C@@H]1[C@H](O)C2` [Example 2-8, (2S)-1-{[(1S,3S,4S,5R)-5-hydroxy-2-azabicyclo[2.2.2]oct-3-yl]carbonyl}-2-pyrrolidinecarbonitrile hydrochloride], the negative-log IC50 (pIC50) is 8.07.

In turn, `N#C[C@@H]1CCCN1C(=O)[C@H]1N[C@@H]2C[C@H]1C[C@H]2OCCO` [Example 25-3, (2S)-1-{[(1R,3S,4S,6R)-6-(2-hydroxyethoxy)-2-azabicyclo[2.2.1]hept-3-yl]carbonyl}-2-pyrrolidinecarbonitrile hydrochloride] showed a pIC50 of 8.35.

Turning to `N#C[C@@H]1C[C@H](F)CN1C(=O)[C@H]1N[C@@H]2C[C@H]1C[C@H]2O` [Example 45-3, (2S,4S)-4-Fluoro-1-{[(1R,3S,4S,6R)-6-hydroxy-2-azabicyclo[2.2.1]hept-3-yl]carbonyl}-2-pyrrolidinecarbonitrile hydrochloride], the pIC50 was 8.33.

With `CC1(NCC(=O)N2C[C@@H](F)C[C@H]2C#N)CCN(c2cnccn2)CC1` [Example 10-8, (2S,4S)-4-Fluoro-1-({[4-methyl-1-(2-pyrazinyl)-4-piperidinyl]amino}acetyl)-2-pyrrolidinecarbonitrile], the pIC50 is 7.89.

Compound `N#C[C@@H]1CCCN1C(=O)[C@H]1N[C@@H]2C[C@H]1C[C@H]2O` [Example 5-8, (2S)-1-{[(1R,3S,4S,6R)-6-hydroxy-2-azabicyclo[2.2.1]hept-3-yl]carbonyl}-2-pyrrolidinecarbonitrile hydrochloride] showed a pIC50 of 8.06.

System in another series: not given
Experiment: not given
Conditions: not given
For orientation: melting point means the temperature of the solid-liquid transition. The compound `CC1(NCC(=O)N2C[C@@H](F)C[C@H]2C#N)CCN(c2cnccn2)CC1` [Example 10-8, (2S,4S)-4-Fluoro-1-({[4-methyl-1-(2-pyrazinyl)-4-piperidinyl]amino}acetyl)-2-pyrrolidinecarbonitrile] yielded a melting point of 166 to 167 °C.
